Laboratory results as given in patent US20080234254A1, “Inhibitors of Histone Deacetylase” (UNIVERSITY OF LEEDS, priority 2004, published 2008).
Where two headings read alike, the source gives them in different places.

What was measured:
Assay type in all cases: cell-based
[1] = system: SK-MEL-28; assay: Screening against cancer cell lines: SK-MEL-28 (Melanoma)
Source text: (§1) Screening of Benzamide Derivatives Against Cancer Cell Lines Tables 1 and 2 tabulate by way of example the results obtained for compounds (4) and (6).
(§2) 7 melanoma cancer cell lines were screened against both compound (4) and MS275.

[2] = system: OVCAR-4; assay: Comparison test versus MS275: OVCAR-4 (ovarian cancer); details: Homo sapiens, read-out: potency (quantity not named; values match GI50 of Table 1)
Source text: (§3) 6 ovarian cancer cell lines were screened against both compound (4) and MS275.

[3] = system: MDA-MB-231/ATCC; assay: Screening against cancer cell lines: MDA-MB-231/ATCC (Breast)
Source text: as §1
(§4) 7 breast cancer cell lines were screened against both compound (4) and MS275.

[4] = system: UACC-257; assay: Screening against cancer cell lines: UACC-257 (Melanoma)
Source text: as §1, §2

[5] = system: 786-0; assay: Comparison test versus MS275: 786-0 (renal cancer); details: Homo sapiens, read-out: potency (quantity not named; values match GI50 of Table 1)
Source text: (§5) 7 renal cancer cell lines were screened against both compound (4) and MS275.

[6] = system: OVCAR-8; assay: Screening against cancer cell lines: OVCAR-8 (Ovarian)
Source text: as §1

[7] = system: renal cancer cell lines; assay: Comparison test versus MS275: 7 renal cancer cell lines; details: in 4 cell lines of 7 renal cancer cell lines screened
Source text: as §5

[8] = system: MDA-MB-435; assay: Screening against cancer cell lines: MDA-MB-435 (Breast)
Source text: as §1, §4

[9] = system: NCI/ADR-RES; assay: Screening against cancer cell lines: NCI/ADR-RES (Breast)
Source text: as §1, §4

[10] = system: SN12C; assay: Screening against cancer cell lines: SN12C (Renal)
Source text: as §1, §5

[11] = system: cancer cell lines; assay: Screening of benzamide derivatives against cancer cell lines (summary); details: summary of Tables 1 and 2
Source text: as §1

[12] = system: breast cancer cell lines; assay: Comparison test versus MS275: 7 breast cancer cell lines; details: in 3 cell lines of 7 breast cancer cell lines screened
Source text: as §4

[13] = system: RXF 393; assay: Screening against cancer cell lines: RXF 393 (Renal)
Source text: as §1, §5

[14] = system: melanoma cancer cell lines; assay: Comparison test versus MS275: 7 melanoma cancer cell lines; details: in 3 cell lines of 7 melanoma cancer cell lines screened
Source text: as §2

[15] = system: LOX IMVI; assay: Screening against cancer cell lines: LOX IMVI (Melanoma)
Source text: as §1, §2

[16] = system: KM-12; assay: Comparison test versus MS275: KM-12 (colon cancer); details: Homo sapiens, KM12, read-out: potency (quantity not named; values match GI50 of Table 1)
Source text: (§6) 6 colon cancer cell lines were screened against both compound (4) and MS275.

[17] = system: IGROV1; assay: Screening against cancer cell lines: IGROV1 (Ovarian)
Source text: as §1, §3

[18] = system: UACC-62; assay: Screening against cancer cell lines: UACC-62 (Melanoma)
Source text: as §1

[19] = system: ovarian cancer cell lines; assay: Comparison test versus MS275: 6 ovarian cancer cell lines; details: in 3 cell lines of 6 ovarian cancer cell lines screened
Source text: as §3

[20] = system: non-small cell lung cancer cell lines; assay: Comparison test versus MS275: 8 non-small cell lung cancer cell lines; details: in 2 cell lines of 8 non-small cell lung cancer cell lines screened
Source text: (§7) 8 non-small cell lung cancer cell lines were screened against both compound (4) and MS275.

[21] = system: SR; assay: Screening against cancer cell lines: SR (Leukaemia); details: Leukaemia
Source text: as §1

[22] = system: HCT-15; assay: Screening against cancer cell lines: HCT-15 (Colon)
Source text: as §1, §6

[23] = system: SK-OV-3; assay: Comparison test versus MS275: SK-OV-3 (ovarian cancer); details: Homo sapiens, read-out: potency (quantity not named; values match GI50 of Table 1)
Source text: as §3

[24] = system: RPMI-8226; assay: Screening against cancer cell lines: RPMI-8226 (Leukaemia)
Source text: as §1

[25] = system: NCI-H522; assay: Screening against cancer cell lines: NCI-H522 (Non-Small Cell Lung)
Source text: as §1, §7

[26] = system: NCI-H23; assay: Screening against cancer cell lines: NCI-H23 (Non-Small Cell Lung)
Source text: as §1, §7

[27] = system: ACHN; assay: Screening against cancer cell lines: ACHN (Renal)
Source text: as §1, §5

[28] = system: colon cancer cell lines; assay: Comparison test versus MS275: 6 colon cancer cell lines; details: in 3 cell lines of 6 colon cancer cell lines screened
Source text: as §6

[29] = Homo sapiens, Breast, Table 1, read-out: GI50
[30] = Homo sapiens, Breast, Table 1, read-out: LC50 (the source's name)
[31] = Homo sapiens, breast cancer, comparison versus MS275, read-out: potency (quantity not named; values match GI50 of Table 1)
[32] = Homo sapiens, Table 1, read-out: LC50 (the source's name)
[33] = Homo sapiens, Renal, Table 1, read-out: GI50
[34] = Homo sapiens, Renal, Table 1, read-out: LC50 (the source's name)
[35] = Homo sapiens, renal cancer, comparison versus MS275, read-out: potency (quantity not named; values match GI50 of Table 1)

## C=C(CN1CCc2ccccc2C1)c1ccc(C(=O)Nc2ccccc2N)cc1 [Compound (4), N-(2-Amino-phenyl)-4-[1-(3,4-dihydroisoquinolin-2(1H)-ylmethyl)vinyl]benzamide]
[1]; Homo sapiens, SK-MEL-28, Melanoma, Table 1, read-out: GI50
  GI50: 389 nM
[1]; Homo sapiens, SK-MEL-28, Melanoma, Table 1, read-out: LC50 (the source's name)
  CC50: > 50000 nM
[1]; Homo sapiens, SK-MEL-28, melanoma, comparison versus MS275, read-out: potency (quantity not named; values match GI50 of Table 1)
  GI50: 390 nM
[1]; SK-MEL-28, Melanoma, Table 1
  TGI: 6500 nM
[2]
  GI50: 1910 nM
[3]; Breast, Table 1
  TGI: 2700 nM
[3]; [29]
  GI50: 748 nM
[3]; [30]
  CC50: 19200 nM
[3]; [31]
  GI50: 750 nM
[4]; Homo sapiens, UACC-257, Melanoma, Table 1, read-out: GI50
  GI50: 499 nM
[4]; Homo sapiens, UACC-257, Melanoma, Table 1, read-out: LC50 (the source's name)
  CC50: > 50000 nM
[4]; Homo sapiens, UACC-257, melanoma, comparison versus MS275, read-out: potency (quantity not named; values match GI50 of Table 1)
  GI50: 500 nM
[4]; UACC-257, Melanoma, Table 1
  TGI: 15500 nM
[5]
  GI50: 1050 nM
[6]; Homo sapiens, Table 1
  GI50: 768 nM
[6]; [32]
  CC50: > 50000 nM
[6]; Table 1
  TGI: 12500 nM
[7]
  potency over MS275: > 2 fold
[8]; Homo sapiens, MDA-MB-435, Breast, Table 1, read-out: GI50
  GI50: 98 nM
[8]; Homo sapiens, MDA-MB-435, Breast, Table 1, read-out: LC50 (the source's name)
  CC50: ~4000 nM
[8]; Homo sapiens, MDA-MB-435, breast cancer, comparison versus MS275, read-out: potency (quantity not named; values match GI50 of Table 1)
  GI50: 90 nM
[8]; MDA-MB-435, Breast, Table 1
  TGI: 600 nM
[9]; Breast, Table 1
  TGI: 2000 nM
[9]; [29]
  GI50: 613 nM
[9]; [30]
  CC50: > 50000 nM
[9]; [31]
  GI50: 610 nM
[10]; [33]
  GI50: 629 nM
[10]; [34]
  CC50: 27000 nM
[10]; [35]
  GI50: 630 nM
[10]; Renal, Table 1
  TGI: 2700 nM
[11]
  activity against cancer cell lines (in words): potently inhibited
[12]
  potency over MS275: > 2 fold
[13]; Homo sapiens, RXF 393, Renal, Table 1, read-out: GI50
  GI50: 102 nM
[13]; Homo sapiens, RXF 393, Renal, Table 1, read-out: LC50 (the source's name)
  CC50: 46000 nM
[13]; Homo sapiens, RXF 393, renal cancer, comparison versus MS275, read-out: potency (quantity not named; values match GI50 of Table 1)
  GI50: 100 nM
[13]; RXF 393, Renal, Table 1
  TGI: 600 nM
[14]
  potency over MS275: > 2 fold
[15]; Homo sapiens, Melanoma, Table 1, read-out: GI50
  GI50: 99 nM
[15]; Homo sapiens, Melanoma, Table 1, read-out: LC50 (the source's name)
  CC50: 6400 nM
[15]; Homo sapiens, melanoma, comparison versus MS275, read-out: potency (quantity not named; values match GI50 of Table 1)
  GI50: 90 nM
[15]; Melanoma, Table 1
  TGI: 600 nM
[16]
  GI50: 1150 nM
[17]; Homo sapiens, IGROV-1, IGROV1, Ovarian, Table 1, read-out: GI50
  GI50: 245 nM
[17]; Homo sapiens, IGROV-1, IGROV1, Ovarian, Table 1, read-out: LC50 (the source's name)
  CC50: > 50000 nM
[17]; Homo sapiens, IGROV-1, IGROV1, ovarian cancer, comparison versus MS275, read-out: potency (quantity not named; values match GI50 of Table 1)
  GI50: 250 nM
[17]; IGROV1, Ovarian, Table 1
  TGI: 10500 nM
[18]; Homo sapiens, Table 1
  GI50: 666 nM
[18]; [32]
  CC50: 20700 nM
[18]; Table 1
  TGI: 2900 nM
[19]
  potency over MS275: > 2 fold
[20]
  potency over MS275: > 2 fold
[21]; Homo sapiens, Table 1, read-out: GI50
  GI50: 484 nM
[21]; [32]
  CC50: > 50000 nM
[21]; Table 1
  TGI: — (‘—’ indicates a concentration exceeding 50 μM.)
[22]; HCT-15, Colon, Table 1
  TGI: 7800 nM
[22]; Homo sapiens, HCT-15, Colon, Table 1, read-out: GI50
  GI50: 836 nM
[22]; Homo sapiens, HCT-15, Colon, Table 1, read-out: LC50 (the source's name)
  CC50: > 50000 nM
[22]; Homo sapiens, HCT-15, colon cancer, comparison versus MS275, read-out: potency (quantity not named; values match GI50 of Table 1)
  GI50: 840 nM
[23]
  GI50: 1080 nM
[24]; Homo sapiens, Table 1
  GI50: 510 nM
[24]; [32]
  CC50: > 50000 nM
[24]; Table 1
  TGI: — (‘—’ indicates a concentration exceeding 50 μM.)
[25]; Homo sapiens, NCI-H522, Non-Small Cell Lung, Table 1, read-out: GI50
  GI50: 220 nM
[25]; Homo sapiens, NCI-H522, Non-Small Cell Lung, Table 1, read-out: LC50 (the source's name)
  CC50: 20800 nM
[25]; Homo sapiens, NCI-H522, non-small cell lung cancer, comparison versus MS275, read-out: potency (quantity not named; values match GI50 of Table 1)
  GI50: 220 nM
[25]; NCI-H522, Non-Small Cell Lung, Table 1
  TGI: 1400 nM
[26]; Homo sapiens, NCI-H23, Non-Small Cell Lung, Table 1, read-out: GI50
  GI50: 178 nM
[26]; Homo sapiens, NCI-H23, Non-Small Cell Lung, Table 1, read-out: LC50 (the source's name)
  CC50: 11400 nM
[26]; Homo sapiens, NCI-H23, non-small cell lung cancer, comparison versus MS275, read-out: potency (quantity not named; values match GI50 of Table 1)
  GI50: 180 nM
[26]; NCI-H23, Non-Small Cell Lung, Table 1
  TGI: 1500 nM
[27]; [33]
  GI50: 844 nM
[27]; [34]
  CC50: 14400 nM
[27]; [35]
  GI50: 840 nM
[27]; Renal, Table 1
  TGI: 2800 nM
[28]
  potency over MS275: > 2 fold
